Results on one molecule are retold here after article PMC6813295, “A tumour-selective cascade activatable self-detained system for drug delivery and cancer imaging” (Nature Communications, 2019).

In one series the test system is H460 tumour-bearing mice. The series can be described thus: Tumour penetration, distance from CD31-stained vessels in frozen tumour sections. The class given is in vivo, mouse. As for the experimental part: Fig. 5 Tumour penetrations of TCASS. a 3D reconstruction PA images of tumour-bearing mice injected with molecule 1, SiO2 nanoparticles (SiO2 NPs) and liposome labelled by Cy. The degrees of penetration into the tumour were calculated. To better illustrate the penetration extent of molecule 1, SiO2 nanoparticles (SiO2 NPs) and liposome labelled by Cy, the tumour tissue was divided into five parts with identical radius intervals, which indicated the trend from the tumour edge to the interior (the red dashed circles show the tumour margin, and the grey dashed circles show the normalized distance from the tumour edge). b Quantification of the PA signal intensity. The PA intensity in the intratumoural distribution area between neighbouring polygons was normalized by the corresponding area. Data are presented as the mean ± s.d. (n = 3). ***p < 0.001, p values were performed with one-way ANOVA followed by post hoc Tukey’s test for the indicated comparison. c Frozen sections of tumour removed after treatment with molecule 1, SiO2 NPs and liposome labelled by Cy for 12 h. The tumour cell nucleus and vessels were stained with DAPI and FITC-tagged CD31 antibody, respectively. d Quantification of the penetrative distance of molecule 1, SiO2 NPs and liposome labelled by Cy from the tumour vessels. Data are presented as the mean ± s.d. (n = 8). ***p < 0.001, p values were performed with one-way ANOVA followed by post hoc Tukey’s test for the indicated comparison. Scale bar: a 2 mm; c 50 μm
All animal experiments were performed as previously described. H460 cells were also subcutaneously implanted on the right flank of xenografts mice. After the tumour had developed, Molecule 1 (14 mg/kg, n = 3), liposome and SiO2 nanoparticles labelled by Cy (the same molar amount of Cy, n = 3) dissolved into PBS was intravenously injected through tail vein of mice. The control group was PBS at the same conditions. […] In order to quantify the PA signal intensity, the intratumoral distribution area was normalized with the tumour regions.

The format of series [1] is physicochemical. The procedure: microscopy (UltraVIEW VoX).
H460 cells (1 x 10^5 cells per well) were seeded in a confocal microscopy dish (MatTek). After culture for 24 h, the cells were treated with P7 (XIAP inhibitor) (50 μM) or […] (caspase inhibitor) (10 μM) for 3 h and followed by PBS washing. And then the molecule 1 (50 μM) and 2 (50 μM) were individually added for 1 h and followed by PBS washing and fresh medium replacement.
After further 6 h of incubation, the cells were washed twice by PBS and stained with bisBenzimide H 33342 trihydrochloride (Hoechst 33342) (1 mg ml-1; Life Technologies) at 37 °C for 10 min. […]
[Cy]0 is the initial concentration of the molecule 1 or 4, [Cy]t is the concentration of the molecule 1 or […] after the irradiation of t min. Based on Beer rule, it has the linear relation between the concentration of the molecule 1 or 4 and the absorbance in maximal wavelength for the low concentration cyanine dye. […]
A0 is the absorbance in maximal wavelength before the irradiation, and At is the absorbance in maximal wavelength after the irradiation. […]
The pathway of molecule 1 entering cells. […] Subsequently, H460 cells were treated with molecule 1 (50 uM), after 2 h of incubation at 37 ℃ the medium was removed and the cells were washed three times with PBS and analysed by confocal laser scanning […]

Where a SMILES comes first, the peptide text is derived from it. The star is where a group is joined. X1 = CC1(C)C(=CC=C2CCCC(C=CC3=[N+](CCCCCC(=O)O)c4ccccc4C3(C)C)=C2*)N(CCCCCC(=O)O)c2ccccc21

`CC[C@H](C)[C@H](NC(=O)[C@@H]1CCCN1C(=O)[C@@H](NC(=O)[C@H](C)N)C(C)C)C(=O)N[C@@H](C)C(=O)N[C@@H](CCC(N)=O)C(=O)N[C@@H](CCCCN)C(=O)N[C@@H](CC(=O)O)C(=O)N[C@@H](CCC(=O)O)C(=O)N[C@H](C(=O)N[C@@H](CC(=O)O)C(=O)N[C@@H](CCCCN)C(=O)N[C@@H](CC(C)C)C(=O)N[C@H](C(=O)N[C@@H](Cc1ccccc1)C(=O)N[C@@H](Cc1ccccc1)C(=O)N[C@@H](C)C(=O)N[C@@H](CCC(=O)O)C(=O)N[C@@H](CSC1=C(C=CC2=[N+](CCCCCC(=O)O)c3ccccc3C2(C)C)CCCC1=CC=C1N(CCCCCC(=O)O)c2ccccc2C1(C)C)C(=O)NCC(=O)O)C(C)C)C(C)C` [molecule 1] (H-AVPIAQKDEVDKLVFFAEC(X1)G-OH): the “penetrative distance of signal from the tumour blood vessels” value with H460 tumour-bearing mice (12 h post IV injection, 14 mg/kg or same molar amount of Cy, frozen sections, mean ± s.d. n = 8) is “approximately 67.4 ± 10.3 μm”. For the same molecule, in the series on H460 tumour-bearing mice (12 h post injection), the “penetration distance of molecule 1 relative to SiO2 nanoparticles” value is reported as roughly 10 times and the “penetration distance of molecule 1 relative to liposomes” value is reported as “approximately 13 times”. For the same molecule, the “photobleaching after irradiation for 6 h” value in series [1] (irradiation 6 h, pure water, Suppl. Fig. 16: xenon flash lamp, 5 μM in PBS buffer 10 mM pH 7.4, r.t., absorbance at 780 nm) is given as 42%. Besides, in series [1] (rate constants k from ln(A0/At) = kt, tested in parallel), the “photodegradation rate of molecule 1 relative to that of 4” value came out at 7.5 fold.
